Several values for one entry are separate records, joined by “and”; a condition that tells them apart may be missing. Equal entries are not always repeated. Where two headings read alike, the source gives them in different places.
How the values were obtained:
[1] = molecular target: GluN2A-containing receptors; conditions: cited from earlier work
[2] = molecular target: GluN2C-containing receptors; conditions: cited from earlier work
[3] = molecular target: GluN2D-containing receptors; conditions: cited from earlier work
[4] = molecular target: GluN2B-containing receptors; set-up: method as in earlier work; conditions: TEVC; ref 1-3 (supplementary references); cited from earlier work
GluK2 = GluK2 (Homo sapiens, UniProt Q13002); experiment: Glutamate-stimulated Ca2+-influx fluorescence assay in HEK293 cells, GluK2; assay type: cell-based; conditions: for IC50: HEK293 cells, glutamate-stimulated Ca2+-influx
Chain of GluK2 (Q13002 32-908): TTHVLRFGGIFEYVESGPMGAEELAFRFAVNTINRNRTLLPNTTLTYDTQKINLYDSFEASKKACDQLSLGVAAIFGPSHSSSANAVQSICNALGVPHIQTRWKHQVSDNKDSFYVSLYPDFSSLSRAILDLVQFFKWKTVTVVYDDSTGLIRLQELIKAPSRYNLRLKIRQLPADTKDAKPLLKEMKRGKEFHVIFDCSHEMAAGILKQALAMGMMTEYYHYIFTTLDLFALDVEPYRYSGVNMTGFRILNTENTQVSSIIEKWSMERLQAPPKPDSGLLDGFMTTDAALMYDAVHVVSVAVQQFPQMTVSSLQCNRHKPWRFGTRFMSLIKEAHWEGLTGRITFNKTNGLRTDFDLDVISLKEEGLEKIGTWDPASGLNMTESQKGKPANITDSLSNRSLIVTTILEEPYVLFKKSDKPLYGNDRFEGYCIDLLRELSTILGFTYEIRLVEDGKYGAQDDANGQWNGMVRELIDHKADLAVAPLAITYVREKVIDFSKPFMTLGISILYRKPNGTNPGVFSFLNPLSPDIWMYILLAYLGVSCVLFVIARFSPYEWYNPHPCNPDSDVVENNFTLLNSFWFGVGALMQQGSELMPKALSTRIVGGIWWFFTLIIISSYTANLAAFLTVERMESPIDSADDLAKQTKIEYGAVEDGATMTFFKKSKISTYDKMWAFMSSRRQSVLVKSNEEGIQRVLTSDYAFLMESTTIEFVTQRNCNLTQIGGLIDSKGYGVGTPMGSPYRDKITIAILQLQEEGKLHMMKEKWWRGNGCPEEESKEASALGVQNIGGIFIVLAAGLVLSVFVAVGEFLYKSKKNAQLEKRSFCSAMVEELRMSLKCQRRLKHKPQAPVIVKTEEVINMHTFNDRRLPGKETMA
Method: (§1) HEK293 cell lines stably expressing homomeric glutamate receptors (GluA1, GluK1 and GluK2) were obtained from Eli Lilly and grown in DMEM (ThermoFisher) supplemented with 10% v/v fetal bovine serum (Sigma), 2 mM Glutamax™ (Gibco), 100 U/mL penicillin, 100 µg streptomycin and 250 ng amphotericin B (Sigma) in 5% CO2 at 37 °C. Cells were passaged using TrypLE (Gibco) as required before confluency and periodically treated with selection antibiotics (GluK1, GluK2 hygromycin B, 200 µg/mL; GluA1 geneticin™, 200 µg/mL).
(§2) Calcium influx fluorescence assay
(§3) 100k cells/well were seeded into a 96-well plate precoated with poly-L-lysine and incubated for 12-16 hours until fully confluent. The cell monolayer was washed twice with 100 µL Hanks Balanced Salt Solution supplemented with 5 mM CaCl2 and 20 mM HEPES (sHBSS), then incubated for 2-4 hours with 100 µL working solution of Ca6 dye (Molecular Devices) supplemented with a desensitization blocker (GluK1, GluK2 0.25 mg/mL concanavalin A, Sigma; GluA1 100 µM cyclothiazide, Sigma). The time resolved fluorescence was recorded in a Flexstation 3 instrument (Molecular Devices). For each individual reading, the initial fluorescence of the well was measured for 20 seconds, after which the desired concentration of […]
(§4) response is measured as the peak change in fluorescence upon addition of agonist. The viability of the cells was confirmed by determination of the concentration-response curve to the L-glutamate agonist and a standard antagonist for each plate. Readings of antagonists used the […]
(§5) Fluorescence traces were performed in […]
(§6) triplicate on each plate and Ki values were determined on a plate-by-plate basis. Separate experiments (n) were performed on different passages of cells. […]

GluN1-4a/GluN2A NMDARs [5] = molecular target: T1, GluN1-4a/GluN2A NMDARs (Rattus norvegicus, UniProt P35439+Q00959); experiment: TEVC electrophysiology on Xenopus laevis oocytes expressing GluN1-4a/GluN2A; assay type: cell-based; conditions: Cheng–Prusoff from IC50 and L-glutamate EC50; 100 μM glycine, 1 or 3 μM L-glutamate
T1 construct: expressed in transfected cells; host or cells: Xenopus laevis oocytes injected with cRNA
T1 sequence (Q00959 23-1464, other chains not shown): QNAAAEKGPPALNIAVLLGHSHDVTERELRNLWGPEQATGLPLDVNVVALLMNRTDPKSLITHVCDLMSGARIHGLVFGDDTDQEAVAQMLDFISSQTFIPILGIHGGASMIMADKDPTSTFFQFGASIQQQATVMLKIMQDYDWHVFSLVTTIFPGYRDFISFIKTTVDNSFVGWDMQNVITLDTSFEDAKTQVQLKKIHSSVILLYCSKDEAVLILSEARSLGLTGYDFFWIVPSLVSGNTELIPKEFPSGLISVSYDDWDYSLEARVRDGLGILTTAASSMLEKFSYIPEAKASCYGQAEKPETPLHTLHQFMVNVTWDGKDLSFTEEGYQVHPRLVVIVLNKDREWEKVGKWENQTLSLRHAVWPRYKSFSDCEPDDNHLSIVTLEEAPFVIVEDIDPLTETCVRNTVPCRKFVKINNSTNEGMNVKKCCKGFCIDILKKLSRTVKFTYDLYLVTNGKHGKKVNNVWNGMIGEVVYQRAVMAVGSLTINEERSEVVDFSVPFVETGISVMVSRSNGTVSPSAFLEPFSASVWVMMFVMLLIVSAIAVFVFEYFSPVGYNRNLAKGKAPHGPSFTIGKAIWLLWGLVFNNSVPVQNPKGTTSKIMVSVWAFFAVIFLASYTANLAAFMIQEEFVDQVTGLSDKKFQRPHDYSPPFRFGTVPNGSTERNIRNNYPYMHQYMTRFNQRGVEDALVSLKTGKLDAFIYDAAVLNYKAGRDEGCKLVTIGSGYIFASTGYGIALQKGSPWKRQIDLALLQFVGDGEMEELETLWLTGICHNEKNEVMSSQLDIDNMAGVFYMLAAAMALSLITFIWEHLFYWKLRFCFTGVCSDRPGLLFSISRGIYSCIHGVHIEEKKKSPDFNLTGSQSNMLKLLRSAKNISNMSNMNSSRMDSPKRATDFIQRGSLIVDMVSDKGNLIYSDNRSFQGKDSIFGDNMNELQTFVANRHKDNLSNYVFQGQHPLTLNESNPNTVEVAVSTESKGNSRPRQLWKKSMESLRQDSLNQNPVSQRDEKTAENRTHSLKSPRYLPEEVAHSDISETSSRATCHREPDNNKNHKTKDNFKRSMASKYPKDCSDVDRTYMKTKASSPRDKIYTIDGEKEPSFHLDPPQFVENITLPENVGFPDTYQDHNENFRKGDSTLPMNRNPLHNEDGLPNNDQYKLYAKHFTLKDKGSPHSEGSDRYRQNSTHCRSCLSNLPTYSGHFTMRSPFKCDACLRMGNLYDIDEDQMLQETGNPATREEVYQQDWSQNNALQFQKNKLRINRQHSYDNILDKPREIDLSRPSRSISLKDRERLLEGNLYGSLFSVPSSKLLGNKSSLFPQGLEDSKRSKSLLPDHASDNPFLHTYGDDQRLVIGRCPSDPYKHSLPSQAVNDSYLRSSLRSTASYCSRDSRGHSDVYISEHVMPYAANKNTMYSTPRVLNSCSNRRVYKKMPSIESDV
Description: (§7) The chemical definition of UBP791 used in this study is a cis-racemic mixture of (2S,3R)- and (2R,3S)-isomers.
(§8) Plasmids (pSP or pCI_NEO) harboring rat GluN1 or GluN2 full-length subunits were linearized by restriction digestion and transcribed according to the manufacturer’s instructions (mMESSAGE mMachine SP6 or T7 kit, ThermoFisher Scientific). Recombinant rat GluN1-4a and GluN2 were expressed by co-injecting cRNA at a 1:2 (w/w) ratio into defolliculated X. laevis oocytes (amounts varied from 0.05–25 ng per oocyte). Two-electrode voltage-clamp recordings were performed 1–3 days after injection using agarose-tipped microelectrodes (0.4–1.2 MΩ) filled with 3 M KCl at a holding potential of −60 mV. The bath solution contained 5 mM HEPES, 100 mM NaCl, 0.3 mM BaCl2, 10 mM Tricine, at pH 7.4 (adjusted with KOH). […] For the statistical evaluation, we implemented pairwise F-tests to test variances, and then performed the Student t test with equal or unequal variances as determined previously, and accounted for multiple testing with the Bonferroni correction.

GluN1-4a/GluN2A NMDARs [6] = molecular target: T2, GluN1-4a/GluN2A NMDARs (Rattus norvegicus, UniProt Q00959); experiment: as above; assay type: cell-based; conditions: Ki GluN2A relative to Ki GluN2D (WT)
T2 construct: expressed in transfected cells; host or cells: Xenopus laevis oocytes injected with cRNA
Description: as §7, §8

GluA1 = GluA1 (Homo sapiens, UniProt P42261); experiment: Glutamate-stimulated Ca2+-influx fluorescence assay in HEK293 cells, GluA1; assay type: cell-based; conditions: for IC50: HEK293 cells, glutamate-stimulated Ca2+-influx
Chain of GluA1 (P42261 19-906): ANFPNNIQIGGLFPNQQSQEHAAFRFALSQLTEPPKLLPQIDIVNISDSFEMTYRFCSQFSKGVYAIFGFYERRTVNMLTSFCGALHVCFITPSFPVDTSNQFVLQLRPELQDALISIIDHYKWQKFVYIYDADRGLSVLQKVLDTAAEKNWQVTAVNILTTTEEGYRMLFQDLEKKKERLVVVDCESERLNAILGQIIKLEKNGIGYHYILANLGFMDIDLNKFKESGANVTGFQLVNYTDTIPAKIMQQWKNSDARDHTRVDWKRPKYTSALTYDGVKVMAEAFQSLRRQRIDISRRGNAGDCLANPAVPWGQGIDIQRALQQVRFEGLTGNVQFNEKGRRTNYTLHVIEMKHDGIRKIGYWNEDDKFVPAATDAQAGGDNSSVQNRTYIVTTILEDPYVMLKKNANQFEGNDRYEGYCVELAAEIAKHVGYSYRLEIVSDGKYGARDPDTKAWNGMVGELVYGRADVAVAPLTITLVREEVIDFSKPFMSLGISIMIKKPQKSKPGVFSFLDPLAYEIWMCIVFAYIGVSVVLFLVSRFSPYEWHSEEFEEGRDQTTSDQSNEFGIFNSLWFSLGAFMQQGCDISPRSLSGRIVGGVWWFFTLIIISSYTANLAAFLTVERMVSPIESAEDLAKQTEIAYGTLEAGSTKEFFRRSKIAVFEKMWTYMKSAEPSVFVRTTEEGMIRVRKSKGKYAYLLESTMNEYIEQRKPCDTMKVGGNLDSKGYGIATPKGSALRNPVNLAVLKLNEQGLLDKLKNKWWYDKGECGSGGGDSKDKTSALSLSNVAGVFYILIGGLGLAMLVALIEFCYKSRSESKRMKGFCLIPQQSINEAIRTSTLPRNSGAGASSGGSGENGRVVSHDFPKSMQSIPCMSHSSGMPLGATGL
Method: as §1, §2, §3, §4, §5, §6

GluN1-4a/GluN2D NMDARs = molecular target: T3, GluN1-4a/GluN2D NMDARs (Rattus norvegicus, UniProt P35439+Q62645); experiment: TEVC electrophysiology on Xenopus laevis oocytes expressing GluN1-4a/GluN2D; assay type: cell-based
T3 construct: expressed in transfected cells; host or cells: Xenopus laevis oocytes injected with cRNA
T3 sequence (Q62645 28-1323, other chains not shown): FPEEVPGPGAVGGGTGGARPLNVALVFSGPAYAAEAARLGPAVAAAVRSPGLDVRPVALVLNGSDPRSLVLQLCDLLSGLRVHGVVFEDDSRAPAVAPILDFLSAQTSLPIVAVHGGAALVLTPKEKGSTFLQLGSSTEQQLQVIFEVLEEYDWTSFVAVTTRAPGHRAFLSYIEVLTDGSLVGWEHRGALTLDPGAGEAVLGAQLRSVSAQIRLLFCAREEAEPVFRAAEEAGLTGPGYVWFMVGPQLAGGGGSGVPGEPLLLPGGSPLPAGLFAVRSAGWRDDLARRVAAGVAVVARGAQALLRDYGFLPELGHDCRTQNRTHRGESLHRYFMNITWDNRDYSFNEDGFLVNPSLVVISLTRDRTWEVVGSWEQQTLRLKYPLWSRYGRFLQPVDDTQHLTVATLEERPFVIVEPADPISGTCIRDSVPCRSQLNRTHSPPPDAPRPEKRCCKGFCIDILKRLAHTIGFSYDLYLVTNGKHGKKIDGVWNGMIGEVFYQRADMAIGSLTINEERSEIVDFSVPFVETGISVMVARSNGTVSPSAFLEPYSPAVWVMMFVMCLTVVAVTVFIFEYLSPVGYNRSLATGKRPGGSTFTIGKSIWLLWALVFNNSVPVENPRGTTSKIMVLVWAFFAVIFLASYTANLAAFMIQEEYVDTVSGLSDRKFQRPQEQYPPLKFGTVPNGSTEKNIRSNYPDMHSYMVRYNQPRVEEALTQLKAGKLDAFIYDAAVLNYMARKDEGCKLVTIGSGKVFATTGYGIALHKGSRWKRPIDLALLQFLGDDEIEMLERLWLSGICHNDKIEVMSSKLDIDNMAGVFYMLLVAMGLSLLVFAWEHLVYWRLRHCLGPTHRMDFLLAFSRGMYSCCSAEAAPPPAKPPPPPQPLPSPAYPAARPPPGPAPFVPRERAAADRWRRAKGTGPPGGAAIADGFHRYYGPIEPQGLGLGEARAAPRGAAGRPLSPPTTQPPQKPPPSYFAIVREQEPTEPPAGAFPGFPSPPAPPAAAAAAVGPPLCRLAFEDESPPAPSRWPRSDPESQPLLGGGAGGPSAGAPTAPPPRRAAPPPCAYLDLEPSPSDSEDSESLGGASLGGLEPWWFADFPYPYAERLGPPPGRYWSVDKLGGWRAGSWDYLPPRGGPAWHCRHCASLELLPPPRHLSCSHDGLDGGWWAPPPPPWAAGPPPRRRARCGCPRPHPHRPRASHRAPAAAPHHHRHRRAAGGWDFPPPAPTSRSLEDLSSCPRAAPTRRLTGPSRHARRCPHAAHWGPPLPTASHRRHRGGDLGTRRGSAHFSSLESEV
Description: as §7, §8

GluK1 = molecular target: GluK1; set-up: method as in PMID 24462099; conditions: cited from earlier work
[7] = tested on: GluN2C/2D-containing NMDARs; conditions: cited from earlier work; for GluN2C/2D preference over GluN2A/2B: allosteric inhibitors
GluA2 = molecular target: GluA2; set-up: method as in PMID 24462099; conditions: cited from earlier work
[8] = molecular target: T4, GluN1-4a/GluN2D Met763Lys NMDARs (Rattus norvegicus, UniProt P35439+Q62645, M763K); experiment: TEVC electrophysiology on oocytes expressing GluN1-4a/GluN2D Met763Lys; assay type: cell-based
T4 construct: expressed in transfected cells; host or cells: Xenopus laevis oocytes injected with cRNA
T4 sequence (Q62645 28-1323 M763K, other chains not shown): as the sequence (Q62645 28-1323, other chains not shown) above, with M736K counted along it
Description: (§9) To test the validity of the structural observation for the critical involvement of the methionine/lysine residue combination (GluN2D-Met763/Lys766, and GluN2A-4m-Met738/Lys741) in preferential binding of UBP791 to GluN2D over GluN2A, we conducted site-directed mutagenesis and assessed inhibition potencies of the mutant channels by TEVC. Specifically, we converted the GluN2D residues to the equivalent ones in the GluN2A subunit and measured macroscopic currents of the GluN1-4a/GluN2D mutant NMDARs.
as §8

[9] = molecular target: T5, GluN1-4a/GluN2D Lys766Arg NMDARs (Rattus norvegicus, UniProt P35439+Q62645, K766R); experiment: TEVC electrophysiology on oocytes expressing GluN1-4a/GluN2D Lys766Arg; assay type: cell-based
T5 construct: expressed in transfected cells; host or cells: Xenopus laevis oocytes injected with cRNA
T5 sequence (Q62645 28-1323 K766R, other chains not shown): as the sequence (Q62645 28-1323, other chains not shown) above, with K739R counted along it
Description: as §9, §8

[10] = molecular target: T6, GluN1-4a/GluN2D Met763Lys/Lys766Arg NMDARs (Rattus norvegicus, UniProt P35439+Q62645, K766R/M763K); experiment: TEVC electrophysiology on oocytes expressing GluN1-4a/GluN2D Met763Lys/Lys766Arg; assay type: cell-based
T6 construct: expressed in transfected cells; host or cells: Xenopus laevis oocytes injected with cRNA
T6 sequence (Q62645 28-1323 M763K/K766R, other chains not shown): as the sequence (Q62645 28-1323, other chains not shown) above, with M736K, K739R counted along it
Description: as §9, §8

[11] = tested on: tPA-promoted neurotoxicity; set-up: method as in Jullienne et al, 2011; conditions: given i.v.; only active where the blood brain barrier was compromised; ref Jullienne et al, 2011; cited from earlier work
[12] = tested on: GluN1/GluN2B/GluN2D triheteromers; set-up: method as in Volianskis et al., 2013; conditions: hippocampus, at concentrations selective for GluN2D; ref Volianskis et al., 2013; cited from earlier work
GluN2A/2C-triheteromers = tested on: GluN2A/2C-triheteromers; set-up: method as in Swanger et al, 2017; conditions: oocyte-based system; ref Swanger et al, 2017; cited from earlier work
GluN2D = tested on: GluN2D; set-up: method as in Swanger et al., 2017; conditions: GluN2D expressed in mammalian cells; ref Swanger et al., 2017; cited from earlier work
[13] = tested on: GluN1/GluN2B/GluN2D triheteromers; set-up: method as in Brothwell et al., 2008; Suárez et al., 2010; conditions: substantia nigra pars compacta; ref Brothwell et al., 2008; Suárez et al., 2010; cited from earlier work
GluN2A-Lys738Met = tested on: GluN2A-Lys738Met; set-up: method as in PMID 24462099; conditions: cited from earlier work
[14] = TEVC, ref 1-3 (supplementary references)
[15] = normalized response at 30 µM compound
[16] = normalized response at 100 µM compound

O=C(O)Cc1cccnc1C(=O)O [HQA, homoquinolinic acid]
EC50 [1, 14]: 10 to 20 µM | EC50 [2, 14]: 30 to 90 µM | EC50 [3, 14]: 30 to 90 µM | EC50 [4]: 10 to 20 µM

O=C(O)CCCCc1ccc2c(ccc3cc(C(=O)N4CCNC(C(=O)O)C4C(=O)O)ccc32)c1 (centres unmarked) [UBP1702]
IC50 (GluK2): > 100 µM | Mean Response (GluK2; [15]): 94.5% | Mean Response (GluK2; [16]): 96.0% | Ki (GluN1-4a/GluN2A NMDARs [5]): 6.75 ± 0.75 µM | fold difference of Ki vs. 2D (GluN2A) (GluN1-4a/GluN2A NMDARs [6]): ~ 52 fold | IC50 (GluA1): > 100 µM | Mean Response (GluA1; [15]): 86.5% | Mean Response (GluA1; [16]): 97.4% | Ki (GluN1-4a/GluN2D NMDARs; read-out: Ki): 0.13 ± 0.01 µM

O=C(O)C1NCCN(C(=O)c2ccc3c(ccc4ccccc43)c2)C1C(=O)O [(2S,3R)-PPDA]
Ki (GluK1): 1.17 µM | fold higher potency compared to the (+)-isomer ([7]; GluN2C and GluN2D-containing NMDARs, ref Irvine et al, 2012): ~ 50 fold | potency of (2S,3R)-PPDA compared with (2R,3S)-PPDA [7]: approximately tenfold higher potency | fold higher potency than the racemate ([7]; on GluN2C and GluN2D, ref 29 (Irvine et al., 2012)): about 1.4 fold | Ki (GluA2): 7.85 µM | fold higher potency compared to the (+)-isomer ([3]; GluN2D-containing NMDARs, ref Jespersen et al, 2014): 7 fold

CC(Cc1ccc2c(ccc3cc(C(=O)N4CCN[C@H](C(=O)O)[C@@H]4C(=O)O)ccc32)c1)C(=O)O (some centres unmarked) [UBP1701]
IC50 (GluK2): > 100 µM | Mean Response (GluK2; [15]): 96.9% | Mean Response (GluK2; [16]): 96.1% | Ki (GluN1-4a/GluN2A NMDARs [5]): 4.49 ± 0.46 µM | fold difference of Ki vs. 2D (GluN2A) (GluN1-4a/GluN2A NMDARs [6]): ~ 45 fold | IC50 (GluA1): > 100 µM | Mean Response (GluA1; [15]): 92.5% | Mean Response (GluA1; [16]): 91.6% | Ki (GluN1-4a/GluN2D NMDARs; Ki, Cheng–Prusoff from IC50 and L-glutamate EC50, 100 μM glycine, 1 or 3 μM L-glutamate): 0.1 ± 0.01 µM

N[C@@H](CCC(=O)O)C(=O)O [L-glutamate, reference compound]
EC50 [8]: 0.27 ± 0.02 µM | EC50 (GluN1-4a/GluN2D NMDARs): 0.17 ± 0.01 µM | EC50 [9]: 0.13 ± 0.02 µM | EC50 [10]: 0.17 ± 0.02 µM

Cc1ccc2[nH]c(=O)c(C3=NN(C(=O)CCC(=O)O)C(c4ccc(Br)cc4)C3)c(-c3ccccc3)c2c1 (centres unmarked) [DQP-1105]
GluN2C/2D preference over GluN2A/2B [7]: ~ 50 fold

O=C(O)[C@H]1NCCN(C(=O)c2ccc3cc(Br)c4ccccc4c3c2)[C@H]1C(=O)O (relative stereo) [UBP145, (2R*,3S*)-1-(9-bromophenanthrene-3-carbonyl)piperazine-2,3-dicarboxylic acid]
effect on tPA neurotoxicity [11]: blocked neurotoxicity of co-applied tissue plasminogen activator (tPA) | GluN2C/2D selectivity [7]: up to approximately tenfold | block of triheteromers [12]: blocks

CCN(CC)C(=O)Oc1ccc(C(=O)Nc2cccc3cc[nH]c23)cc1 [NAB-14]
GluN2C/2D preference over GluN2A/2B [7]: about 800 fold | selectivity for recombinant GluN2C/GluN2D over GluN2A/GluN2B ([7]; reviewer's statement in peer review file, ref Swanger A. et al (2007)): > 800 fold | IC50 ([2]; GluN2C-diheteromers, oocyte-based system, ref Swanger et al, 2017): 5 µM | IC50 (GluN2A/2C-triheteromers): ~15 µM | IC50 (GluN2D): 0.58 µM and 0.584 µM | IC50 ([3]; GluN2D expressed in Xenopus oocytes, ref Swanger et al., 2017): 2.2 µM

O=C(O)[C@H]1NCCN(C(=O)c2ccc3ccc4ccccc4c3c2)[C@H]1C(=O)O (relative stereo) [UBP141, (2R*,3S*)-1-(phenanthrene-3-carbonyl)piperazine-2,3-dicarboxylic acid]
GluN2C/2D selectivity [7]: up to approximately tenfold | inhibition of triheteromers [13]: inhibits

O=C(O)[C@@H]1[C@H](C(=O)O)NCCN1C(=O)c1ccc2c(ccc3ccccc32)c1 (relative stereo) [PPDA, (2S*,3R*)-1-(phenanthrene-2-carbonyl)piperazine-2,3-dicarboxylic acid]
Ki ([1]; GluN2A, PPDA values ref 27): ~0.5 µM | increase of potency compared with the WT GluN2A (GluN2A-Lys738Met): fivefold

COc1ccc2nc(/C=C/c3cccc([N+](=O)[O-])c3)n(-c3ccc(C(=O)O)cc3)c(=O)c2c1 [QNZ46]
GluN2C/2D preference over GluN2A/2B [7]: ~ 50 fold

— article PMC6976569, “Structural basis of subtype-selective competitive antagonism for GluN2C/2D-containing NMDA receptors” (Nature Communications, 2020)
